Measurements published in publication PMC12862769 (ACS infectious diseases, 2025).
≈ marks a conversion by molar mass, not a printed value. Like-named read-outs stand apart in the source and are kept apart here.

Columns and labels:
E. faecium NR-31909 [1] = assay: Multi-step resistance selection assay; type: cell-based
E. faecium NR-31954 = assay: MIC assay; type: cell-based
[2] = system: Staphylococcus epidermidis NRS101; assay: MIC assay; type: cell-based
E. faecium ATCC 700221 = assay: MIC assay; type: cell-based
E. faecium NR-28978 = details: cited from earlier work
E. faecalis HM-335 = details: cited from earlier work
E. faecium NR-32065 = details: cited from earlier work
E. faecalis NR-31970 = assay: MIC assay; type: cell-based
[3] = system: E. saccharolyticus ATCC 43076; assay: MIC assay; type: cell-based
E. faecium NR-31909 [4] = assay: MIC assay; type: cell-based
E. faecalis HM-201 = assay: MIC assay; type: cell-based
E. hirae ATCC 10541 = assay: MIC assay; type: cell-based
E. faecalis NR-31972 = details: cited from earlier work
mouse gut microbiome = assay: Mouse gut microbiome diversity in fecal pellets; type: in vivo, C57BL/6 mice; details: 20 mg/kg PO QD; CAI0019 days 7 or 14, linezolid day 7, vs pre-treatment
E. faecium NR-31912 = assay: MIC assay; type: cell-based
E. faecium NR-31916 = details: cited from earlier work
E. faecium NR-32053 = assay: MIC assay; type: cell-based
E. faecium NR-32094 = assay: MIC assay; type: cell-based
E. faecium NR-31933 = assay: MIC assay; type: cell-based
E. faecium NR-31903 = details: cited from earlier work
E. faecium HM-965 = assay: MIC assay; type: cell-based
E. faecalis NR-31971 = details: cited from earlier work
[5] = system: all tested Enterococcus strains; assay: MIC assay, all tested Enterococcus strains; type: cell-based
E. faecium NR-31937 = assay: MIC assay; type: cell-based
[6] = system: E. faecalis and E. faecium strains; assay: MIC assay, panel of 25 E. faecalis and E. faecium strains; type: cell-based
[7] = system: Bacillus subtilis ATCC11774; assay: MIC assay; type: cell-based
E. faecium NR-32052 = details: cited from earlier work
E. raffinosus ATCC 49464 = assay: MIC assay; type: cell-based
E. durans ATCC 11576 = assay: MIC assay; type: cell-based
E. faecium HM-952 = assay: MIC assay; type: cell-based
E. faecalis HM-334 = details: cited from earlier work
[8] = system: E. casseliflavus ATCC 700327; assay: MIC assay; type: cell-based
E. avium ATCC 14025 = assay: MIC assay; type: cell-based
[9] = system: Staphylococcus aureus USA300; assay: MIC assay; type: cell-based
E. faecium HM-968 = details: cited from earlier work
[10] = system: Listeria Monocytogenes ATCC 19111; assay: MIC assay; type: cell-based
E. faecium NR-31914 = details: cited from earlier work
E. faecalis HM-934 = assay: MIC assay; type: cell-based
E. gallinarum ATCC 49373 = assay: MIC assay; type: cell-based
E. faecium NR-31909 [11] = assay: E. faecium septicemic peritonitis mouse model; type: in vivo, BALB/c mice
E. faecium HM-970 = assay: MIC assay; type: cell-based
[12] = 5% CO2 atmosphere at 37° C, no CAs, expresses MpsAB homologs

CO[C@H]1/C=C/O[C@@]2(C)Oc3c(C)c(O)c4c(O)c(c(/C=N/N5CCN(C)CC5)c(O)c4c3C2=O)NC(=O)/C(C)=C\C=C\[C@H](C)[C@H](O)[C@@H](C)[C@@H](O)[C@@H](C)[C@H](OC(C)=O)[C@@H]1C [rifampicin]
MIC increase (E. faecium NR-31909 [1]; after five passages): 8 fold MIC

CC(=O)NC[C@H]1CN(c2ccc(N3CCOCC3)c(F)c2)C(=O)O1 [LNZ, linezolid]
MIC (E. faecium NR-31954; 5% CO2 atmosphere at 37° C): 2.96 µM (≈ 0.999 µg/mL)
MIC (E. faecium NR-31954; Enterococcus faecium, NR31954): 2.96 µM (≈ 0.999 µg/mL)
MIC [2, 12]: 2.96 µM (≈ 0.999 µg/mL)
MIC ([2]; Staphylococcus epidermidis, NRS101): 2.96 µM (≈ 0.999 µg/mL)
MIC (E. faecium ATCC 700221; 5% CO2 atmosphere at 37° C): 2.96 µM (≈ 0.999 µg/mL)
MIC (E. faecium ATCC 700221; Enterococcus faecium, ATCC700221): 2.96 µM (≈ 0.999 µg/mL)
MIC (E. faecium NR-28978; 5% CO2 atmosphere at 37° C): 2.96 µM (≈ 0.999 µg/mL)
MIC (E. faecium NR-28978; ambient air at 37° C): 2.96 µM (≈ 0.999 µg/mL)
MIC (E. faecalis HM-335; 5% CO2 atmosphere at 37° C): 2.96 µM (≈ 0.999 µg/mL)
MIC (E. faecalis HM-335; ambient air at 37° C): 1.48 µM (≈ 0.499 µg/mL)
MIC (E. faecium NR-32065; 5% CO2 atmosphere at 37° C): 1.48 µM (≈ 0.499 µg/mL)
MIC (E. faecium NR-32065; ambient air at 37° C): 0.74 µM (≈ 0.25 µg/mL)
MIC (E. faecalis NR-31970; 5% CO2 atmosphere at 37° C): 2.96 µM (≈ 0.999 µg/mL)
MIC (E. faecalis NR-31970; Enterococcus faecalis, NR31970): 2.96 µM (≈ 0.999 µg/mL)
MIC [3]: 2.96 µM (≈ 0.999 µg/mL)
MIC ([3]; 5% CO2 atmosphere at 37° C): 2.96 µM (≈ 0.999 µg/mL)
MIC (E. faecium NR-31909 [4]; 5% CO2 atmosphere at 37° C): 2.96 µM (≈ 0.999 µg/mL)
MIC (E. faecium NR-31909 [4]; Enterococcus faecium, NR31909): 2.96 µM (≈ 0.999 µg/mL)
MIC (E. faecalis HM-201; 5% CO2 atmosphere at 37° C): 2.96 µM (≈ 0.999 µg/mL)
MIC (E. faecalis HM-201; Enterococcus faecalis, HM201): 2.96 µM (≈ 0.999 µg/mL)
MIC (E. hirae ATCC 10541; 5% CO2 atmosphere at 37° C): 2.96 µM (≈ 0.999 µg/mL)
MIC (E. hirae ATCC 10541; Enterococcus hirae, ATCC10541): 2.96 µM (≈ 0.999 µg/mL)
MIC (E. faecalis NR-31972; 5% CO2 atmosphere at 37° C): 2.96 µM (≈ 0.999 µg/mL)
MIC (E. faecalis NR-31972; ambient air at 37° C): 1.48 µM (≈ 0.499 µg/mL)
change in microbiome diversity in fecal samples (mouse gut microbiome): no significant change
MIC (E. faecium NR-31912; 5% CO2 atmosphere at 37° C): 2.96 µM (≈ 0.999 µg/mL)
MIC (E. faecium NR-31912; Enterococcus faecium, NR31912): 2.96 µM (≈ 0.999 µg/mL)
MIC (E. faecium NR-31916; 5% CO2 atmosphere at 37° C): 2.96 µM (≈ 0.999 µg/mL)
MIC (E. faecium NR-31916; ambient air at 37° C): 2.96 µM (≈ 0.999 µg/mL)
MIC (E. faecium NR-32053; 5% CO2 atmosphere at 37° C): 2.96 µM (≈ 0.999 µg/mL)
MIC (E. faecium NR-32053; Enterococcus faecium, NR32053): 2.96 µM (≈ 0.999 µg/mL)
MIC (E. faecium NR-32094; 5% CO2 atmosphere at 37° C): 1.48 µM (≈ 0.499 µg/mL)
MIC (E. faecium NR-32094; Enterococcus faecium, NR32094): 1.48 µM (≈ 0.499 µg/mL)
MIC (E. faecium NR-31933; 5% CO2 atmosphere at 37° C): 2.96 µM (≈ 0.999 µg/mL)
MIC (E. faecium NR-31933; Enterococcus faecium, NR31933): 2.96 µM (≈ 0.999 µg/mL)
MIC (E. faecium NR-31903; 5% CO2 atmosphere at 37° C): 47.4 µM (≈ 16 µg/mL)
MIC (E. faecium NR-31903; ambient air at 37° C): 47.4 µM (≈ 16 µg/mL)
MIC (E. faecium HM-965; 5% CO2 atmosphere at 37° C): 2.96 µM (≈ 0.999 µg/mL)
MIC (E. faecium HM-965; Enterococcus faecium, HM965): 2.96 µM (≈ 0.999 µg/mL)
MIC (E. faecalis NR-31971; 5% CO2 atmosphere at 37° C): 2.96 µM (≈ 0.999 µg/mL)
MIC (E. faecalis NR-31971; ambient air at 37° C): 2.96 µM (≈ 0.999 µg/mL)
MIC shift in the presence of CO2 ([5]; 5% CO2 versus ambient air): no MIC shift
MIC50 ([5]; Enterococcus, read-out: All Enterococci spp. MIC50): 2.96 µM (≈ 0.999 µg/mL)
MIC90 ([5]; Enterococcus, read-out: All Enterococci spp. MIC90): 2.96 µM (≈ 0.999 µg/mL)
MIC (E. faecium NR-31937; 5% CO2 atmosphere at 37° C): 2.96 µM (≈ 0.999 µg/mL)
MIC (E. faecium NR-31937; Enterococcus faecium, NR31937): 2.96 µM (≈ 0.999 µg/mL)
MIC50 ([6]; read-out: Ef MIC50): 2.96 µM (≈ 0.999 µg/mL)
MIC90 ([6]; read-out: Ef MIC90): 2.96 µM (≈ 0.999 µg/mL)
MIC ([7]; 5% CO2 atmosphere at 37° C, encodes both MpsAB and CAs): 1.48 µM (≈ 0.499 µg/mL)
MIC ([7]; Bacillus subtilis, ATCC11774): 1.48 µM (≈ 0.499 µg/mL)
MIC (E. faecium NR-32052; 5% CO2 atmosphere at 37° C): 1.48 µM (≈ 0.499 µg/mL)
MIC (E. faecium NR-32052; ambient air at 37° C): 1.48 µM (≈ 0.499 µg/mL)
MIC (E. raffinosus ATCC 49464; 5% CO2 atmosphere at 37° C): 2.96 µM (≈ 0.999 µg/mL)
MIC (E. raffinosus ATCC 49464; Enterococcus raffinosus, ATCC49464): 2.96 µM (≈ 0.999 µg/mL)
MIC increase (E. faecium NR-31909 [1]; starting passage 13): 2 fold MIC
MIC (E. durans ATCC 11576; 5% CO2 atmosphere at 37° C): 2.96 µM (≈ 0.999 µg/mL)
MIC (E. durans ATCC 11576; Enterococcus durans, ATCC11576): 2.96 µM (≈ 0.999 µg/mL)
MIC (E. faecium HM-952; 5% CO2 atmosphere at 37° C): 2.96 µM (≈ 0.999 µg/mL)
MIC (E. faecium HM-952; Enterococcus faecium, HM952): 2.96 µM (≈ 0.999 µg/mL)
MIC (E. faecalis HM-334; 5% CO2 atmosphere at 37° C): 2.96 µM (≈ 0.999 µg/mL)
MIC (E. faecalis HM-334; ambient air at 37° C): 2.96 µM (≈ 0.999 µg/mL)
MIC ([8]; 5% CO2 atmosphere at 37° C): 2.96 µM (≈ 0.999 µg/mL)
MIC ([8]; Enterococcus casseliflavus, ATCC700327): 2.96 µM (≈ 0.999 µg/mL)
MIC (E. avium ATCC 14025; 5% CO2 atmosphere at 37° C): 2.96 µM (≈ 0.999 µg/mL)
MIC (E. avium ATCC 14025; Enterococcus avium, ATCC14025): 2.96 µM (≈ 0.999 µg/mL)
MIC [9, 12]: 1.48 µM (≈ 0.499 µg/mL)
MIC ([9]; Staphylococcus aureus, USA300): 1.48 µM (≈ 0.499 µg/mL)
MIC (E. faecium HM-968; 5% CO2 atmosphere at 37° C): 2.96 µM (≈ 0.999 µg/mL)
MIC (E. faecium HM-968; ambient air at 37° C): 1.48 µM (≈ 0.499 µg/mL)
MIC ([10]; 5% CO2 atmosphere at 37° C, encodes only α-CA, no MpsAB homologs): 2.96 µM (≈ 0.999 µg/mL)
MIC ([10]; Listeria monocytogenes, ATCC19111): 2.96 µM (≈ 0.999 µg/mL)
MIC (E. faecium NR-31914; 5% CO2 atmosphere at 37° C): 2.96 µM (≈ 0.999 µg/mL)
MIC (E. faecium NR-31914; ambient air at 37° C): 2.96 µM (≈ 0.999 µg/mL)
MIC (E. faecalis HM-934; 5% CO2 atmosphere at 37° C): 2.96 µM (≈ 0.999 µg/mL)
MIC (E. faecalis HM-934; Enterococcus faecalis, HM934): 2.96 µM (≈ 0.999 µg/mL)
MIC (E. gallinarum ATCC 49373; 5% CO2 atmosphere at 37° C): 2.96 µM (≈ 0.999 µg/mL)
MIC (E. gallinarum ATCC 49373; Enterococcus gallinarum, ATCC49373|GALLINARUM): 2.96 µM (≈ 0.999 µg/mL)
survival (mice rescued) (E. faecium NR-31909 [11]; 20 mg/kg PO once-daily for three days, n = 6/group): 83%
reduction of VRE bioburden compared to vehicle (E. faecium NR-31909 [11]; kidney, liver and spleen, each tissue, 20 mg/kg PO QD three days): at least 2 Log10 CFU/mL
reduction of VRE bioburden (E. faecium NR-31909 [11]; kidney, liver and spleen, three-day treatment): > 99%
MIC (E. faecium HM-970; 5% CO2 atmosphere at 37° C): 2.96 µM (≈ 0.999 µg/mL)
MIC (E. faecium HM-970; Enterococcus faecium, HM970): 2.96 µM (≈ 0.999 µg/mL)
